Entries after “also recorded” stand apart in the source; their conditions may differ.
Key:
[1] = test system: Chinese hamster V79-379 cells; assay: Clonogenic cell survival / photocytotoxicity in V79 cells (Table 1, FIG. 1, FIG. 2); type: cell-based; settings: for CF10 (AlPcCl)/CF10 (Pc) / F10 (AlPcCl)/F10 (Pc): 1.0 μM, 18 h; for CF10 (AlPcCl)/CF10 (Pc): CF10 = intracellular concentration x fluence reducing survival to 10%; for F10 (AlPcCl)/F10 (Pc): F10 = fluence reducing survival to 10%
Procedure: FIG. 1 is a graph illustrating the photodynamic efficacy of the various compositions of the present invention in comparison to AlPcCl. The phthalocyanine composition compounds of the present invention were tested for their photodynamic efficiency against Chinese hamster fibroblast V79 cells by colony formation. Monolayer cultures were treated with the indicated phthalocyanine composition for 18 hours, irradiated with various fluences of red light, and immediately trypsinized and replated at appropriate aliquots in triplicate. Colonies of at least 50 cells were counted after 7-10 days. The plating efficiency of the untreated cells was approximately 90%.
In this regard, in FIG. 2 the data of FIG. 1 were replotted as a function of the product of the amount of cell-associated phthalocyanine and the light fluence.
(§1) Chinese hamster V79-379 lung fibroblasts were grown in monolayer culture in McCoy's 5A medium (Gibco Laboratories, Grand Island, N.Y.) augmented with 10% calf serum and buffered with 20 mM HEPES (pH 7.4).
(§2) The cells were treated with 1 μM AlPcCl (from Eastman Kodak, Rochester, N.Y.) or with phthalocyanine compositions I-VI (0.5-1.0 μM final concentration in the medium) for 18 hours by adding the appropriate volume of a 1.0 mM stock solution in dimethylformamide (DMF) to the culture medium. The growth medium was replaced with 4 ml Hank's balanced salt solution (HBSS), and the cells were irradiated. The light source was a 500 W tungsten-halogen lamp located approximately 29 inches below the surface of a glass exposure tray. The visible light administered to the cells was filtered to allow passage of only that portion of the visible spectrum above 600 nm (Lee Primary red filter No. 106, Vincent Lighting, Cleveland, Ohio). The fluence rate was approximately 0.074 kJ/m^2 /s at the level of the cell monolayer.
Cells were irradiated at a density of approximately 2×10^6 per 25 cm^2 flask. Immediately after irradiation, the cell monolayer was treated with trypsin, and appropriate aliquots were plated in triplicate to give 100 to 200 colonies in each 10-cm Petri dish. Cell survival was determined by the ability of the cells to form colonies containing at least 50 cells. The response of cells treated with 1 μM AlPcCl and light was compared in each experiment.
Photocytotoxicity of the phthalocyanines compounds I to VI was also assessed by clonogenic assay (Table 1, FIG. 1). In all experiments, 1 μM AlPcCl was included for comparison purposes. From the survival curves (FIG. 1), the fluence reducing the cell survival to 10% (F10) was obtained. The ratio of the F10 for AlPcCl and the F10 for the test compound is recorded in Table 1.
In order to take differences in cellular uptake into consideration in the assessment of the relative efficiency of these phthalocyanines as photosensitizers of V79 cells, the survival data were replotted against the product of intracellular phthalocyanine concentration and light fluence (FIG. 2). From these curves, the product of intracellular concentration and light fluence reducing survival to 10% (CF10) was obtained, and comparisons of the values for AlPcCl and the test compounds are recorded in Table 1.

[2] = test system: Chinese hamster V79-379 cells; assay: Uptake of phthalocyanines by V79 cells relative to AlPcCl (Table 1); type: cell-based
Procedure: as §1
Total uptake was determined by scraping the phthalocyanine-treated monolayer, collecting the cells on a glass-fiber filter, and extracting the phthalocyanine in ethanol, as previously described by Ramakrishnan, et al., 1989. (Ramakrishnan, N., M. E. Clay, M. F. Horng, A. R. Antunez, & H. H. Evans, "DNA Lesions and DNA Degradation in Mouse Lymphoma L5178Y Cells After Photodynamic Treatment Sensitized by Chloroaluminum Phthalocyanine",Photochem. Photobiol, in press, 1989). The amount of drug was determined by absorption at 674 nm and expressed relative to the number of cells, as measured in a Coulter cell counter on an aliquot of the cell population. Controls included cells not treated with drug, medium alone, and drug-containing medium without cells. The results of the total uptake of the various compositions of the present invention in comparison to AlPcCl are set forth below in Table 1.
as §2
All of the compounds have been examined for the extent of cellular uptake after exposure of V79 cells to 1 μM or less in complete medium, and the data of Table 1 are presented relative to the uptake from 1 μM AlPcCl, which was 0.723±0.172 nmole/10^7 cells (mean ±S. D., 25 determinations). […] In particular, when the concentration of Compound IV was 1 μM in the medium, the uptake into the cells was sufficiently high that some of the uptake and phototoxicity studies were repeated at 0.5 μM.

[3] = test system: Chinese hamster V79-379 cells; assay: Growth delay of V79 cultures after red light (Table 1); type: cell-based; settings: for Growth Delay, efficiency relative to 1 μM AlPcCl: 18 h, 12 kJ/m^2 red light
Procedure: as §1, §2
At the time of light exposure, there were approximately 1.5×10^5 cells per 25 cm^2 flask. Following irradiation, the HBSS was replaced by 10 ml of fresh complete growth medium, and the cultures were returned to the 37° C. incubator. At various times before and after irradiation, duplicate cultures were trypsinized and counted. Controls included untreated cells and cells treated with light alone or drug alone. In addition, in each experiment, the drug to be tested was compared to a standard treatment, i.e. 1 μM AlPcCl for 18 hours followed by 12 kJ/m^2 light.
The inhibition of V79 culture growth was measured during a three day period following red light irradiation (12 kJ/m^2) of phthalocyanine-pretreated cells. With each of the active compounds, as well as with AlPcCl, there was an initial decrease in cell density, as dead cells became detached from the monolayer. Thereafter, the cell number per flask increased, as living cells grew and divided. The time for the cell density to recover to the level at the time of light exposure was considered the growth delay. […] The ratio of the growth delay for the test photosensitizer and the growth delay for AlPcCl measured in the same experiment is recorded in Table 1.

[4] = test system: V79 cells; assay: Clonogenicity, killing of V79 cells using photodynamic therapy (Table 3); type: cell-based, Chinese hamster
Procedure: Using the cell culture methods described above, V79 cells Chinese hamster lung fibroblasts were treated with either 0.5 or 1.0 μM of the phthalocyanines listed in Table 3. About 18 hours thereafter, the cells were irradiated with increasing doses of 675 nm broad band red light from a 500 W tungsten-halogen lamp fitted with a 600 nm high pass filter, to determine the light dosage that would kill 90% of the phthalocyanine treated cells. Where 90% of the cells were not killed, the maximum percent of cells killed were determined, (expressed as % survival) and the related light dosage recorded.

[5] = test system: L5178Y-R (LY-R) cells; assay: Clonogenic survival of PDT-treated L5178Y-R cells (Tables 4 and 5, FIG. 3); type: cell-based, mouse; settings: 0.5 μM
Procedure: (§3) Mouse lymphoma L5178y-R (hereinafter also referred to as "LY-R") cells were grown in suspension culture as described in Ramakrishnan N., Oleinick, N. L. Clay, M. E., Horng, M. F., Antunez, A. R., and Evans H. H., DNA lesions and DNA degradation in mouse lymphoma L5178Y cells after photodynamic treatment sensitized by chloroaluminum phthalocyanine. Photochem. Photobiol. 50, 373-378, 1989 and Agarwal, M. L., Clay, M. E., Harvey, E. J., Evans, H. H., Antunez, A. R., and Oleinick, N. L. Photodynamic therapy induces rapid cell death by apoptosis in L5178Y mouse lymphoma cells. Cancer Res., 51, 5993-5996, 1991.
(§4) The cells were used while in exponential growth. Stock solutions of either 0.5 or 1 mM of PcIV, PcXII, PcX, PcXVIII were prepared in dimethylformamide unless otherwise indicated and added to the 10 mL medium at a rate of 1 μL per mL. After allowing 18 hours for uptake of the phthalocyanine into the cells, the flasks containing the cultures were placed on a glass exposure tray above a 500-W tungsten-halogen lamp. The exposure tray was fitted with a 600-nm high-pass filter. Flasks were exposed to various fluences of red light (up to 30 kJ/m^2) at a fluence rate of approximately 74 W/m^2). After irradiation, the cells were collected by centrifugation.
(§5) For measurement of clonogenic cell survival, aliquots were plated in medium containing soft agar as described in Ramakrishnan N., Oleinick, N. L. Clay, M. E., Horng, M. F., Antunez, A. R., and Evans H. H., DNA lesions and DNA degradation in mouse lymphoma L5178Y cells after photodynamic treatment sensitized by chloroaluminum phthalocyanine. Photochem. Photobiol. 50, 373-378, 1989. The aliquots were plated in sufficient numbers to produce 50-200 colonies. The dishes were kept in an incubator at 37° C. in an atmosphere of 5% CO2 and 95% air for 10-14 days to allow viable cells to form colonies. Colonies were counted by eye. Controls treated with the phthalocyanine alone had plating efficiencies of ~90%. The plating efficiencies of the treated cells are normalized to the plating efficiencies of control cells in each experiment. For measurement of the induction of apoptosis, DNA was isolated from the treated and control cells 2 hours after photodynamic therapy, subjected to electrophoresis on 1.5% agarose, stained with ethidium bromide, and visualized by UV transillumination, as described in Agarwal et. al. The results are shown in Tables 4, 5 and 6 and in FIG. 3.
In Table 4 each phthalocyanine was present at 0.5 μM, and the normalized plating efficiencies are presented as mean and standard deviation at each fluence tested. […] This relative activity of these four phthalocyanines is the same as obtained from screening in V79 cells.
PcXII when present in the culture medium at 0.5 μM requires less light, that is the lowest fluence, to kill either 50% […] of the cells. PcIV is about 80% as active as PcXII, PcX is 44% as active as PcXII and PcXVIII is 22% as active as PcXII.

[6] = test system: V79 cells
Procedure: V79 cells Chinese hamster lung fibroblasts were cultured using the cell culture methods described above. […] When the filters were dry, the phthalocyanines were extracted into ethanol and the absorption determined at the peak wavelength, usually 668 nm.

[7] = test system: L5178Y cells; assay: Induction of apoptosis (DNA fragmentation) in L5178Y-R cells (Table 6); type: cell-based, mouse; settings: 0.4 μM
Procedure: as §3, §4, §5
Cells were treated with various concentrations of the compounds listed in the table and various light fluences. DNA gels were prepared and examined for the characteristic "ladder" pattern of DNA fragments. For each Pc, the minimum total PDT dose tested (calculated as the product of the minimum phthalocyanine concentration and the minimum fluence) which produced visible DNA fragments is recorded. […] PcXVIII was also added at 0.5 and 1.0 μM.

[8] = test system: RIF-1 tumors; assay: PDT of RIF-1 implanted tumors (Table 7); type: in vivo, C3H/HeN mice; settings: for effect on tumor volume / growth (in words): 1 mg/kg
Procedure: The relative effectiveness at reducing tumor volume of selected phthalocyanine compounds at a given dosage was compared in vivo. RIF-1, i.e., radiation-induced fibrosarcoma, tumors were implanted into the backs of C3H/HeN mice. One tumor was implanted per mouse. Each of the phthalocyanine compounds listed in Table 7 was sonicated and vortexed in corn oil to produce a suspension. When the tumors reached […] in diameter and 2-3 mm in thickness, each mouse received 1 mg/kg in 0.1 ml of the corn oil, of the phthalocyanine suspension. For comparison, select mice received a conventional photosensitizer; either 5 mg/kg of chloroaluminum phthalocyanine tetrasulfonate, herein also referred to as "AlPcTS" in phosphate buffered saline or 5 mg/kg of Photofrin®-II in 5% dextrose. Twenty-four hours after the photosensitizers were administered, the tumors were irradiated with visible radiation delivered by an argon-pumped dye laser. The mice that received a phthalocyanine photosensitizer received light having a wavelength of 675 nm and the mice that received the Photofrin® II photosensitizer received light having a wavelength of 630 nm. Each tumor received 135 J/cm^2 of radiation. Tumor size was measured every day using calipers. The initial tumor volume was 50±10 mm^3. Tumor volume was calculated according to the hemiellipsoid model by the formula: [formula] Where l is length Where W is width

SMILES | CF10 (AlPcCl)/CF10 (Pc) [1] | F10 (AlPcCl)/F10 (Pc) [1] | uptake from 1 μM AlPcCl [2] [nmole/10^7 cells] | growth delay ([3]; 1 μM for 18 hours and 12 kJ/m^2 light) | Growth Delay, efficiency relative to 1 μM AlPcCl [3] | photosensitizing efficiency / photocytotoxicity (in words) [1] | inhibition of V79 culture growth (in words) ([3]; red light 12 kJ/m^2, three day period) | LD 90 ([4]; 0.5 μM, 18 h, light dose killing 90% of cells) [kJ/m^2] | photosensitizing activity, killing V79 cells (in words) ([4]; discussion of Table 3) | LD 90 ([5]; fluence reducing survival to 10%) [kJ/m^2] | LD50 ([5]; fluence reducing survival to 50%) [kJ/m^2] | photosensitizer activity in LY-R cells (in words) ([5]; listed as PcXII) | Uptake (from Table 2) [6] [n Moles/10^6 cells/μM] | Uptake into V79 cells, composite value [6] [n Moles/10^6 cells/μM] | uptake by V79 cells (in words) [6] | Minimum Demonstrated Condition to induce apoptosis: C × F [7] [μm × kJ/m^2] | Minimum Demonstrated Condition to induce apoptosis: Fluence [7] [kJ/m^2] | Doubling Time of Initial Tumor Volume after PDT ([8]; 1 mg/kg in corn oil, 675 nm, 135 J/cm^2) [days] | effect on tumor volume / growth (in words) ([8]; listed as Pc XII) | effect on tumor volume / growth (in words) ([8]; listed as PcXII)
[Cl][Al]1[n]2c3c4ccccc4c2N=C2N=C(N=c4c5ccccc5c([n]41)=NC1=NC(=N3)c3ccccc31)c1ccccc12 [AlPcCl, chloroaluminum phthalocyanine, reference compound] | 1.0 | 1.0 | 0.723±0.172 | approximately 24 hours | 1.0 |  |  |  |  |  |  |  |  |  |  |  |  |  |  | 
C[N+](C)(C)CCC[Si](C)(C)[O][Al-2]123[n]4c5c6ccccc6c4N=c4c6ccccc6c([n]41)=NC1=[N+]2C(=NC2=[N+]3C(=N5)c3ccccc32)c2ccccc21.I [Compound II, AlPcOSi(CH3)2 (CH2)3 N(CH3)3^+ I^-] | 0.72 | 0.99 |  |  | 3.4 | nearly as efficient photosensitizers as AlPcCl | substantial inhibition |  |  |  |  |  |  |  |  |  |  |  |  | 
CN(C)CCC[Si](C)(C)O[Si]1(O[Si](C)(C)CCCN(C)C)n2c3c4ccccc4c2N=C2N=C(N=c4c5ccccc5c(n41)=NC1=NC(=N3)c3ccccc31)c1ccccc12 [Compound XII, SiPc[OSi(CH3)2 (CH2)3 N(CH3)2]2] |  |  |  |  |  |  |  | 3.3 | most active at killing V79 cells | 1.70 | 1.11 | active photosensitizers; also recorded: most active compound of the phthalocyanines shown in Table 5 | 1.6 | 1.6 | taken up particulary well | 1.2 | 3.0 | 20 | significantly impair the growth of the tumors | particularly effective in reducing tumor volume
